# Laboratory results as given in PMC3392440 (2012).
# How the values were obtained:
# [1] = biological target: TlpB (Helicobacter pylori, UniProt B6JPK4, Y137F); assay: colorimetric assay of co-purified urea; assay type: binding
# [2] = biological target: TlpB periplasmic domain, residues 33-211 (TlpBpp), H. pylori strain SS1 (Helicobacter pylori strain SS1); assay: crystal structure
# [3] = biological target: TlpB (Helicobacter pylori, UniProt B6JPK4); assay: crystal structure; assay type: binding
molecule,measurement,setting,value
NC(N)=O [urea],% bound urea,[1],11 % bound urea
"TlpB periplasmic domain, residues 33-211 (TlpBpp), H. pylori strain SS1 (domain or fragment)",stoichiometry N,[2],2
CC(N)=O [acetamide],crystal structure (1.40 Å); CD thermal melt,[3],TlpBpp with acetamide bound is 3UB7
